Patent US20170114025A1, “METHODS FOR INHIBITING NECROPTOSIS” (Catalyst Therapeutics Pty Ltd, priority 2014, published 2017)
Where two headings read alike, the source gives them in different places.

Tests used:
[1] = system: U937 human histiocytic leukemia cell line; experiment: Screening for inhibition of TSQ induced necroptosis, 96 well plate format; assay type: cell-based
Experimental: Screening Compounds for Inhibition of TSQ Induced Necroptosis, 96 Well Plate Format.
U937 human histiocytic leukemia cell line.
35,000 per well in 120 μL of media, counted and plated immediately prior to addition of inhibitor and death stimuli. Final well volume of 150 μL after addition of compounds and death stimuli
HTRPMI (WEHI Media kitchen, contains L-Glutamine and penicillin, streptomycin)—supplemented with 7.4% v/v FCS (Gibco, Precision Plus. Lot #1221437)
48 hours following addition of compounds and death stimuli
DMSO Final Concentration (% v/v): 0.2%
Compounds that are in the Death Stimulation Cocktail and their Final Concentrations: • hTNF-Fc (100 ng/ml)—produced by Silke lab, WEHI • Compound A (500 nM)—Smac mimetic, Tetralogic • Q-VD-OPh (10 μM)—MP Biomedicals
Analysis: • Cells treated with PI staining (1 μg/ml) and analysed by flow cytometry
TNF; S: Smac mimetic; Q: Q-VD-OPh): TSQ treatment ensures that cells specifically undergo necroptotic cell death. TNF activates the TNF receptor, Smac mimetic direct the signal away from proinflammatory signaling and toward the RIP1/RIP3-mediated cell death pathways, and Q-VD-OPh ensures that the apoptotic response is blocked leaving only the programmed necrosis response. The compounds' activity (solution in DMSO) tested in this TSQ-induced assay is evaluated by measuring their ability to block cell death as measured by flow cytometry after PI staining.

U937 cells = experiment: Counter screen: cell viability without TSQ cocktail (off target effect); assay type: cell-based
Experimental: In parallel, all compounds are tested for their ability to affect cell viability. The same U937 cells are treated with compound in DMSO without the TSQ cocktail. This counter screen enables evaluation of off-target effects. In this case gain, cell viability is measured by flow cytometry after PI staining.

[2] = U-937, U937, TSQ, 48 hours, average IC50, unit not given in Table 2 (titrations in nM), read-out: Cell based assay Average
[3] = U-937, U937, TSQ, 48 hours, unit not given in Table 2 (titrations given in nM), read-out: Cell based assay IC50
[4] = U937 without TSQ cocktail, compound at 500 nM
[5] = U937 without TSQ cocktail, compound at 1 uM
[6] = U937 without TSQ cocktail, compound at 5 uM
[7] = U937 without TSQ cocktail, compound at 10 uM

Structure (SMILES)	IC50 [1, 2]	IC50 [1, 3]	Off target effect (% cell death) at 500 nM (U937 cells; [4])	Off target effect (% cell death) at 1 uM (U937 cells; [5])	Off target effect (% cell death) at 5 uM (U937 cells; [6])	Off target effect (% cell death) at 10 uM (U937 cells; [7])	IC50 ([1]; U-937, 48 h, read-out: Cell based assay Average)	IC50 ([1]; U-937, 48 h, read-out: Cell based assay IC50)	Off target effect (% cell death) at 500 nM (U937 cells; human, 500 nM)	Off target effect (% cell death) at 1 uM (U937 cells; human, 1 uM)	Off target effect (% cell death) at 5 uM (U937 cells; human, 5 uM)	Off target effect (% cell death) at 10 uM (U937 cells; human, 10 uM)
CN(c1ccc(NC(=O)Nc2ccc(OC(F)(F)F)cc2)cc1)c1ccnc(Nc2ccccc2S(N)(=O)=O)n1 [Compound 5, 2-(4-(Methyl(4-(3-(4-(trifluoromethoxy)phenyl)ureido)phenyl)amino)pyrimidin-2-ylamino)benzenesulfonamide]	> 10000 nM	≥ 10000 nM	–	–	–	–	–	–	–	–	–	–
Cc1ccc(F)c(NC(=O)Nc2ccc(N(C)c3ccnc(Nc4cccc(S(N)(=O)=O)c4)n3)cc2)c1 [Compound 6]	19.9 nM	19 nM	<20%	40%	86%	89%	–	–	–	–	–	–
CN(c1ccc(NC(=O)Nc2ccc(OC(F)(F)F)cc2)cc1)c1ccnc(Nc2cccc(C(N)=O)c2)n1 [Compound 8, 3-((4-(methyl(4-(3-(4-(trifluoromethoxy)phenyl)ureido)phenyl)amino)pyrimidin-2-yl)amino) benzamide]	89.1 nM	85.2 nM	–	–	–	–	–	–	–	–	–	–
CNS(=O)(=O)c1cccc(Nc2nccc(N(C)c3ccc(NC(=O)Nc4ccc(OC(F)(F)F)cc4)cc3)n2)c1 [Compound 9, N-methyl-3-((4-(methyl(4-(3-(4-(trifluoromethoxy)phenyl)ureido)-phenyl)amino)pyrimidin-2-yl)amino) benzenesulfonamide]	42 nM	73.1 nM	<20%	<20%	43%	88%	–	–	–	–	–	–
CN(c1ccc(NC(=O)Nc2ccc(OC(F)(F)F)cc2)cc1)c1ccnc(Nc2cccc(S(=O)(=O)N(C)C)c2)n1 [Compound 10, N,N-dimethyl-3-((4-(methyl(4-(3-(4-(trifluoromethoxy)phenyl)ureido)-phenyl)amino)pyrimidin-2-yl)amino)benzenesulfonamide]	45.6 nM	72.4 nM	<20%	<20%	38%	69%	–	–	–	–	–	–
NS(=O)(=O)c1cccc(Nc2nccc(Nc3ccc(NC(=O)Nc4ccc(OC(F)(F)F)cc4)cc3)n2)c1 [Compound 11, 3-((4-((4-(3-(4-(trifluoromethoxy)phenyl)ureido)phenyl)amino)pyrimidin-2-yl)amino)benzenesulfonamide]	359 nM	359 nM	<20%	<20%	<20%	20%	–	–	–	–	–	–
CN(C(=O)Nc1ccc(OC(F)(F)F)cc1)c1ccc(N(C)c2ccnc(Nc3cccc(S(N)(=O)=O)c3)n2)cc1 [Compound 12, 3-((4-(methyl(4-(1-methyl-3-(4-(trifluoromethoxy)phenyl)ureido)phenyl)amino)pyrimidin-2-yl)amino) benzene sulfonamide]	–	327 nM	36%	41%	36%	56%	–	–	–	–	–	–
CN(c1ccc(NC(=O)Nc2ccc(OC(F)(F)F)cc2)cc1)c1ccnc(Nc2cccc(CS(N)(=O)=O)c2)n1 [Compound 13, (3-((4-(Methyl(4-(3-(4-(trifluoromethoxy)phenyl)ureido)phenyl)amino)pyrimidin-2-yl)amino)phenyl)methanesulfonamide]	149 nM	167 nM	24%	20%	14%	84%	–	–	–	–	–	–
CN(c1cccc(NC(=O)Nc2ccc(OC(F)(F)F)cc2)c1)c1ccnc(Nc2cccc(S(N)(=O)=O)c2)n1 [Compound 14, 3-((4-(methyl(3-(3-(4-(trifluoromethoxy)phenyl)ureido)phenyl)amino)pyrimidin-2-yl)amino) benzenesulfonamide]	–	–	<20%	<20%	<20%	70%	342 nM	443 nM	–	–	–	–
CN(c1ccc(NC(=O)Nc2ccc(OC(F)(F)F)cc2)cc1)c1ccnc(Nc2cccc(S(N)(=O)=O)c2)c1 [Compound 15, 3-((4-(methyl(4-(3-(4-(trifluoromethoxy)phenyl)ureido)phenyl)amino)pyridin-2-yl)amino) benzenesulfonamide]	304 nM	328 nM	<20%	<20%	<20%	43%	–	–	–	–	–	–
CN(c1ccc(NC(=O)Cc2ccc(OC(F)(F)F)cc2)cc1)c1ccnc(Nc2cccc(S(N)(=O)=O)c2)n1 [Compound 16, N-(4-(methyl(2-((3-sulfamoylphenyl)amino)pyrimidin-4-yl)amino)phenyl)-2-(4-(trifluoro-methoxy)phenyl)acetamide]	87.3 nM	97.5 nM	<20%	<20%	<20%	30%	–	–	–	–	–	–
CN(c1ccc(CC(=O)Nc2ccc(OC(F)(F)F)cc2)cc1)c1ccnc(Nc2cccc(S(N)(=O)=O)c2)n1 [Compound 17, 2-(4-(methyl(2-((3-sulfamoylphenyl)amino)pyrimidin-4-yl)amino)phenyl)-N-(4-(trifluoromethoxy)phenyl)acetamide]	1050 nM	979 nM	22%	21%	<20%	39%	–	–	–	–	–	–
CN(c1ccc(NC(=O)Nc2ccc(OC(F)(F)F)cc2)cc1)c1ccnc(Nc2ccc(F)c(S(N)(=O)=O)c2)n1 [Compound 18, 2-Fluoro-5-((4-(methyl(4-(3-(4-(trifluoromethoxy)phenyl)ureido)phenyl)amino)pyrimidin-2-yl)amino)benzenesulfonamide]	59.4 nM	91.7 nM	27%	29%	94%	93%	–	–	–	–	–	–
Cc1ccc(Nc2nccc(N(C)c3ccc(NC(=O)Nc4ccc(OC(F)(F)F)cc4)cc3)n2)cc1C(=O)N(C)C [Compound 19, N,N,2-trimethyl-5-((4-(methyl(4-(3-(4-(trifluoromethoxy)phenyl)ureido)phenyl)amino)pyrimidin-2-yl)amino)benzamide]	85.5 nM	114 nM	28%	30%	26%	70%	–	–	–	–	–	–
Cc1cc(OC(F)(F)F)ccc1NC(=O)Nc1ccc(N(C)c2ccnc(Nc3cccc(S(N)(=O)=O)c3)n2)cc1 [Compound 20, 3-((4-(Methyl(4-(3-(2-methyl-4-(trifluoromethoxy)phenyl)ureido)phenyl)-amino)pyrimidin-2-yl)amino) benzenesulfonamide]	109 nM	143 nM	–	–	–	–	–	–	24%	29%	33%	80%
